In PubChem BioAssay (NCI) one finds GI50 and TGI data, which are given here for nine compounds.

Holding throughout (experiment): NCI-60 cell line screen, 48 h
For experiment [1], the system named is UACC-257 melanoma.
Experiment [2] deals with HCT-15 colon.
The subject of experiment [3] is IGROV1 ovarian.
The test system of experiment [4] is SK-MEL-2 melanoma.
The test system of experiment [5] is KM12 colon.
The test system of experiment [6] is SF-268 CNS.
Experiment [7] has as its system M14 melanoma.
The test system of experiment [8] is NCI/ADR-RES ovarian.
Experiment [9] deals with MOLT-4 leukemia.
Experiment [10] concerns CAKI-1 renal.

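Briefly, cells in 96-well plates were exposed to five compound concentrations for 48 h, and endpoints were estimated by linear interpolation. At the GI50, growth is halved. TGI is the concentration that stops growth completely.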 Where a SMILES comes first, the peptide text is derived from it. Bridges are numbered along the chain shown (N, C = ends). Roman numbers before positions name the chains, in order. [ ]: non-standard residue; d: D form. The star is where a group is joined. Quinoxaline2carbonyl = O=C(c1cnc2ccccc2n1)*; NMeV = CN[CH](C(=O)O)C(C)C; NMeC = CN[CH](CS)C(=O)O

On to `Cc1cccc(NC(=O)c2sc3nc4c(cc3c2N)CN(Cc2ccccc2)CC4)c1C`, for which the GI50 in [1] was over 50 µM; in experiment [2], 0.176 µM; in experiment [3], 0.337 µM; in [4] it was 0.328 µM; in experiment [5], 0.193 µM; in [6], 0.387 µM. Also, the figures for the GI50 in [7], in [8] and in [9] were 0.149 µM, 0.133 µM and 0.286 µM, respectively. Besides, the TGI in experiment [1] is over 50 µM; in [2], over 50 µM; in experiment [3], over 50 µM; in [4], 25.8 µM; in [5] it was over 50 µM; in experiment [6], over 50 µM. For the same compound, the TGI in experiment [7] was 33.2 µM; in experiment [8] it was over 50 µM; in [9], over 50 µM.
`COC(=O)c1nc(-c2ccccc2)oc1S(=O)(=O)n1nc(C)cc1N`: the GI50 is 18.6 µM in experiment [1]; 4.51 µM in [2]; 15.7 µM in [3]; 13.7 µM in experiment [4]; 16.9 µM in [5]; 18.9 µM in experiment [6]. The values for the GI50 in experiment [7], in [8] and in experiment [9] were 5.66 µM, 22.5 µM and 3.08 µM, respectively. The TGI was 39.7 µM in experiment [1]; 17.8 µM in experiment [2]; 36.5 µM in experiment [3]; 30.5 µM in experiment [4]; 32.4 µM in [5]; 41.3 µM in [6]. Besides, the TGI amounted to 20 µM in experiment [7], 57.6 µM in experiment [8] and 11.4 µM in experiment [9].
Regarding `CCC1(O)C(=O)OCc2c1cc1n(c2=O)Cc2cc3cc(N)ccc3nc2-1` (stereo not given), the TGI is 1.89 µM in experiment [1]; 3.55 µM in [2]; over 55.2 µM in experiment [3]; 0.826 µM in experiment [4]; 0.153 µM in experiment [7]; 0.343 µM in experiment [10]. The TGI in experiment [8] was 0.266 µM; in experiment [9], under 0.01 µM.
Take `COc1ccc(-c2cc(=O)c3c(OC)c(OC)c(OC)c(OC)c3o2)cc1`: the TGI in experiment [1], in [2], in [3], in experiment [4], in [6] and in [7] was over 100 µM in each case. The TGI in experiment [10], in experiment [8] and in experiment [9] was over 100 µM each time.
On to `Cc1ccc(C2=Nc3ccccc3SC(c3cccc([N+](=O)[O-])c3)C2)cc1` (stereo not given), for which the TGI in experiment [1] was over 100 µM; in experiment [2], over 100 µM; in experiment [3], over 100 µM; in experiment [4], over 100 µM; in experiment [5], 36.8 µM; in [6], over 100 µM. The TGI in experiment [7], in experiment [10] and in experiment [8] was over 100 µM in each case.
In the case of `CN1CCN(CC(O)COc2c(Br)c(Br)c(Br)c3c2OC(C)(C)C3)CC1` (stereo not given), the GI50 in experiment [2] is 2.79 µM; in experiment [3] it was 5.36 µM; in experiment [4], 10.2 µM; in experiment [5], 6.06 µM; in experiment [6], 5.79 µM; in [10], 14.5 µM. Further, in experiment [8], the GI50 is 15.9 µM. In addition, the TGI in experiment [2] came to 6.16 µM; in experiment [3] it was 25.1 µM; in experiment [4] it was 25.2 µM; in [5] it was 43.2 µM; in experiment [6] it was 24.1 µM; in experiment [10], 38.1 µM. The compound also displayed a TGI in experiment [8] of 49 µM.
Consider `COc1ccc(C2[C@@H](Cl)C(=O)N2c2cc(OC)c(OC)c(OC)c2)cc1Cl` (stereo not given in full), for which the GI50 was 0.191 µM in experiment [2]; 0.343 µM in experiment [3]; 0.177 µM in experiment [4]; 0.178 µM in [5]; 0.291 µM in [6]; 0.0773 µM in [7]. Moreover, the GI50 is 0.146 µM in experiment [10], 0.0692 µM in experiment [8] and 0.275 µM in experiment [9]. Further, the TGI in experiment [2] was over 100 µM; in experiment [3], 41.5 µM; in [4], 22.5 µM; in experiment [5], 18.5 µM; in experiment [6], 30.6 µM; in experiment [7], 0.712 µM. The TGI in [10] is over 100 µM; in [8] it was over 100 µM; in [9], 50.5 µM.
As to `CC1NC(=O)C(NC(=O)c2cnc3ccccc3n2)COC(=O)C(C(C)C)N(C)C(=O)C2CSSCC(C(=O)N(C)C(C(C)C)C(=O)OCC(NC(=O)c3cnc4ccccc4n3)C(=O)NC(C)C(=O)N2C)N(C)C1=O` (stereo not given) (I: Quinoxaline2carbonyl-SA[NMeC][NMeV] / II: Quinoxaline2carbonyl-SA[NMeC][NMeV]; ester I:1-II:C, I:C-II:1; disulfide I:3-II:3; configuration not given here), the TGI in [1] is 0.0162 µM; in experiment [2], 0.365 µM; in experiment [4] it was under 0.01 µM; in experiment [5] it was 3.17 µM; in experiment [6], 0.0641 µM; in experiment [7] it was under 0.01 µM. Also, the TGI in [10] was over 48.7 µM; in [8], 0.662 µM; in experiment [9] it was over 4.64 µM.
Take `BrCc1ccc(CBr)cc1`: the GI50 in [1] is 14 µM; in experiment [2] it was 5.44 µM; in experiment [3] it was 7 µM; in experiment [5], 1.29 µM; in experiment [6], 5.82 µM; in experiment [7], 11.3 µM. Further, the GI50 in experiment [10] was 1.99 µM; in [8], 6.95 µM; in experiment [9], 2.11 µM. In addition, the TGI in experiment [1] is 38.9 µM; in experiment [2], over 75.2 µM; in experiment [3], over 87.4 µM; in [5], 6.71 µM; in [6] it was 18 µM; in experiment [7], over 47.3 µM. Besides, the TGI in experiment [10] is 6.92 µM; in experiment [8], over 21.1 µM.
